Measurements as given in ChEMBL document CHEMBL1156829 (Proc Natl Acad Sci U S A, 2008).

Key:
[1] = system: Plasmodium falciparum; assay: NOVARTIS: Inhibition of Plasmodium falciparum 3D7 (drug-susceptible) proliferation in erythrocyte-based infection assay; format: functional, organism-based; conditions: Plasmodium falciparum, 3D7
[2] = NOVARTIS: Cytotoxicity against human hepatocellular carcinoma cell line (Huh7); format: toxicity, cell-based, Huh-7; conditions: Huh7 cells (hepatocellular carcinoma cell line)
[3] = system: Plasmodium falciparum; assay: NOVARTIS: Inhibition of Plasmodium falciparum W2 (drug-resistant) proliferation in erythrocyte-based infection assay; format: functional, organism-based; conditions: Plasmodium falciparum, W2; read-out: EC50

Row | SMILES | EC50 [1] | CC50 [2] | EC50 [3]
1 | O=c1c2c3c(sc2ncn1Cc1cccc(Cl)c1)CC(N1CCCCC1)CC3 (stereo not given) | 2950 nM | 27800 nM | 2640 nM
2 | COc1cccc(-c2nc(CS(=O)(=O)CC(=O)N3CC(C)CC(C)C3)c(C)o2)c1 (stereo not given) | 136 nM | > 10000 nM | > 1250 nM
3 | O=C(Nc1ccc(-n2cnnn2)cc1)C1CCN(Cc2cc3ccccc3o2)CC1 | 198 nM | > 61900 nM | 416 nM
4 | COCCNC(=O)c1ccc2c(=O)n(Cc3ccc4c(c3)OCO4)c(=S)[nH]c2c1 | > 533 nM | > 10000 nM | 943 nM
5 | CCOC(=O)C1=C(N)N(c2cccc([N+](=O)[O-])c2)C2=C(C(=O)CC(C)(C)C2)C1c1ccc(Cl)cc1 (stereo not given) | 6140 nM | > 100000 nM | 5550 nM
6 | O=C(C1CCCCN1)N1CC(c2ccccc2)c2ccccc2C1CN1CCCCC1 (stereo not given) | 439 nM | 4680 nM | 257 nM
7 | COc1ccc(C2Nc3ccc(C(C)=O)cc3C3C=CCC32)cc1[N+](=O)[O-] (stereo not given) | 2150 nM | > 100000 nM | 2570 nM
8 | CCOC(=O)NN=C1C=C2C=CC3C(CC[C@@]4(C)C3CC3CCCCC34C(C)=O)[C@@]2(C)CC1 (stereo not given in full) | > 902 nM | > 10000 nM | > 1560 nM
9 | Fc1ccc(N2CCN(c3ncnc4c3cnn4-c3ccccc3)CC2)cc1 | > 12500 nM | > 100000 nM | 3780 nM
10 | CCC1=NN2C(=N)/C(=C/c3ccc(OCCOc4ccc(Br)cc4)c(OC)c3)C(=O)N=C2S1 | > 1250 nM | > 10000 nM | > 675 nM
11 | O=C(CSc1nc2ccccc2c(=O)n1CCCN1CCOCC1)Nc1cccc(S(=O)(=O)N2CCCCCC2)c1 | 470 nM | 62100 nM | 1180 nM
12 | O=C(CC1N=C2c3ccccc3N=C(SCc3cccc(F)c3)N2C1=O)NCc1cccs1 (stereo not given) | 1190 nM | > 100000 nM | 960 nM
13 | CCCCOc1nc(-c2ccc(OC)cc2)n(C(=O)c2ccccc2OC)n1 | 8970 nM | > 100000 nM | 717 nM
14 | NCCCNc1ncc(C(=O)NCc2ccccc2)c(NCC2CCCCC2)n1 | 91.2 nM | 5140 nM | 799 nM
15 | COc1ccc(OC)c(-c2ccc(O)c(CNCCCN(C)C)c2)c1 | 1260 nM | 21400 nM | 670 nM
16 | CCCCCCCCCCCC(=O)N(C)CCCNc1ccnc2cc(Cl)ccc12 | 223 nM | 3010 nM | 27.3 nM
17 | O=C(O)CSc1nc2c(ccc3nsnc32)[nH]1 | > 964 nM | > 10000 nM | > 1440 nM
18 | CC1CCN(c2ncnc3sc4c(c23)CCC(C)C4)CC1 (stereo not given) | 1050 nM | > 100000 nM | 2300 nM

Row | SMILES | EC50 [1] | CC50 [2] | EC50 [3]
19 | Cn1nc(C(C)(C)C)cc1C(=O)N1CCCN1C(=O)CNC(=O)c1ccco1 | > 335 nM | > 10000 nM | > 1250 nM
20 | Cc1ccc(C)n1-c1ccc(N(C)C)cc1 | 2930 nM | 50900 nM | 1330 nM
21 | CC(=O)OC1CCC2(C)C(CCC3C2CCC2(C)C3CC(O)C2(O)C(C)=O)C1 (stereo not given) | > 1250 nM | > 10000 nM | > 826 nM
22 | O=C(NNc1c2ccccc2nc2ccccc12)Nc1ccccc1 | 873 nM | > 10000 nM | 756 nM
23 | O=C(Nc1ccc2c(c1)S(=O)(=O)c1cc(NC(=O)c3cccs3)ccc1-2)c1cccs1 | 1110 nM | > 10000 nM | > 1250 nM
24 | COc1ccc(OC)c(-c2ccc(O)c(CNCC(C)c3ccccc3)c2)c1 (stereo not given) | 960 nM | > 10000 nM | 672 nM
25 | CN(c1ccccc1)S(=O)(=O)c1ccc(C(=O)Nc2ccc(-c3nc4ccccc4[nH]3)cc2)cc1 | 788 nM | 42800 nM | 1040 nM
26 | Cc1cccc(N(C)c2nc3ccccc3c3nnc(C)n23)c1 | 119 nM | > 100000 nM | 134 nM
27 | CCN(CC)CCCC(C)Nc1c2ccc(Cl)cc2nc2ccc(OC)nc12 (stereo not given) | 744 nM | > 6250 nM | 746 nM
28 | CC(C)(C)NS(=O)(=O)c1cc(Cl)ccc1Cl | > 1250 nM | > 10900 nM | 730 nM
29 | O=C(c1ccco1)N1CCN(c2ccc([N+](=O)[O-])c(NC3CC3)c2)CC1 | 100 nM | > 100000 nM | 44.5 nM
30 | Clc1ccc(C2Nc3ccc4ccccc4c3C3C=CCC32)c(Cl)c1 (stereo not given) | > 1250 nM | > 10000 nM | > 1200 nM
31 | COc1ccc(OC)c(CN2CCC3(CC2)CC3C(=O)NCCc2ccccc2OC)c1 (stereo not given) | > 3170 nM | > 100000 nM | 1190 nM
32 | CCN1CCN(CCN2C(=O)C3C(C(=O)Nc4ccc(C(C)C)cc4)C4C=CC3(O4)C2C(=O)NC2CCCCC2)CC1 (stereo not given) | > 12500 nM | > 100000 nM | 5820 nM
33 | NCCCC[C@H]1C(=O)Nc2ccc(O)cc2C(=O)N1C(C(=O)NCC(=O)O)c1cccnc1 (stereo not given in full) | 115 nM | > 12100 nM | < 6.3 nM
34 | C=CCCC(=O)N1CCC(C(=O)Nc2ccc(-c3nc4ccccc4o3)cc2)CC1 | 5420 nM | > 100000 nM | 1520 nM
35 | O=C1NC(=S)N/C1=C/c1cccc(Oc2ccccc2)c1 | 1880 nM | > 10000 nM | > 191 nM
